Laboratory results taken from ChEMBL document CHEMBL4813964, “2,5-Disubstituted furan derivatives containing 1,3,4-thiadiazole moiety as potent α-glucosidase and E. coli β-glucuronidase inhibitors” (Eur J Med Chem, 2021).

What was measured:
[1] = Inhibition of Saccharomyces cerevisiae alpha-glucosidase assessed as reduction in PNP formation using alpha-PNPG as substrate incubated for 30 mins
Saccharomyces cerevisiae [2] = assay: Inhibition of Saccharomyces cerevisiae alpha-glucosidase assessed as reduction in PNP formation at 10 uM using alpha-PNPG as substrate incubated for 30 mins relative to control
[3] = Inhibition of Escherichia coli […] expressed in Escherichia coli BL21 (DE3) assessed as reduction in PNP formation using beta-PNPG as substrate incubated for 30 mins
Escherichia coli [4] = assay: Inhibition of recombinant Escherichia coli […] expressed in Escherichia coli BL21(DE3) assessed as reduction in PNP formation at 10 uM using beta-PNPG as substrate incubated for 30 mins relative to control
L02 = assay: Cytotoxicity against human L02 cells assessed as reduction in cell viability incubated for 48 hrs by CCK8 assay; assay type: cell-based; conditions: L02, 48 h
[5] = Competitive inhibition of Saccharomyces cerevisiae alpha-glucosidase using alpha-PNPG as substrate incubated for 30 mins by Lineweaver-Burk plot analysis
Saccharomyces cerevisiae [6] = assay: Potency index, ratio of ACAR IC50 to test compound IC50 for inhibition of Saccharomyces cerevisiae alpha-glucosidase assessed as reduction in PNP formation using alpha-PNPG as substrate incubated for 30 mins
[7] = Uncompetitive inhibition of recombinant Escherichia coli […] expressed in Escherichia coli […] using beta-PNPG as substrate incubated for 30 mins by Lineweaver-Burk plot analysis
Escherichia coli [8] = assay: Potency index, ratio of DSL IC50 to test compound IC50 for inhibition of Escherichia coli […] expressed in Escherichia coli BL21 (DE3) assessed as reduction in PNP formation using beta-PNPG as substrate incubated for 30 mins
[9] = Mixed inhibition of recombinant Escherichia coli […] expressed in Escherichia coli BL21(DE3) using beta-PNPG as substrate incubated for 30 mins by Lineweaver-Burk plot analysis

Structure (SMILES)	IC50 [1] [nM]	inhibition (Saccharomyces cerevisiae [2]) [%]	IC50 [3] [nM]	inhibition (Escherichia coli [4]) [%]	IC50 (L02) [nM]	Ki [5] [nM]	Ratio IC50 (Saccharomyces cerevisiae [6])	Ki [7] [nM]	Ratio IC50 (Escherichia coli [8])	Ki [9] [nM]
O=C(Sc1nncs1)c1ccc(-c2ccc(F)cc2F)o1	1140	71	1260	76.4						
O=C(Sc1nncs1)c1ccc(-c2ccc(Cl)cc2)o1	186	68.9	2080	92	83300	50	2800			
O=C(Sc1nncs1)c1ccc(-c2ccccc2[N+](=O)[O-])o1	223	95.7	341	90.5	> 100000					
Cc1nnc(SC(=O)c2ccc(-c3ccccc3F)o2)s1	2740	69.9	307	96.6						
Cc1nnc(SC(=O)c2ccc(-c3ccc(F)cc3F)o2)s1	1940	65.8	357	86.7						
Clc1ccc2c(c1)C(N1CCNCC1)=Nc1ccccc1O2 [AMOXAPINE]			83	99.8				50		
Cc1nnc(SC(=O)c2ccc(-c3cccc(F)c3)o2)s1	2950	59.1	82	91.7	86200			60	820	
Cc1nnc(SC(=O)c2ccc(-c3ccccc3[N+](=O)[O-])o2)s1	658	81.6	564	98.5						
Cc1ccc(-c2ccc(C(=O)Sc3nnc(C)s3)o2)cc1		44.4	508	85.7						
Cc1nnc(SC(=O)c2ccc(-c3cccc(Cl)c3)o2)s1	728	82.5	551	99.6						
O=C(Sc1nncs1)c1ccc(-c2ccc(Br)cc2)o1	526	66.7	379	76.4						
O=C(Sc1nncs1)c1ccc(-c2c(F)cccc2F)o1	903	81.6	849	92.9						
Cc1nnc(SC(=O)c2ccc(-c3ccccc3Cl)o2)s1	774	94.1	230	100						
COc1ccc(-c2ccc(C(=O)Sc3nncs3)o2)cc1	239	74.4	533	93						
O=C(Sc1nncs1)c1ccc(-c2ccccc2Cl)o1	1350	82.1	5370	88.1						
Cc1ccc(-c2ccc(C(=O)Sc3nncs3)o2)cc1	286	78.2	312	90.1						
O=C(Sc1nncs1)c1ccc(-c2cccc(Cl)c2)o1	680	77.1	148	83.8						

Structure (SMILES)	IC50 [1] [nM]	inhibition (Saccharomyces cerevisiae [2]) [%]	IC50 [3] [nM]	inhibition (Escherichia coli [4]) [%]	IC50 (L02) [nM]	Ki [5] [nM]	Ratio IC50 (Saccharomyces cerevisiae [6])	Ki [7] [nM]	Ratio IC50 (Escherichia coli [8])	Ki [9] [nM]
C[C@H]1O[C@H](O[C@H]2[C@H](O)[C@@H](O)[C@@H](O[C@H]3[C@H](O)[C@@H](O)C(O)O[C@@H]3CO)O[C@@H]2CO)[C@H](O)[C@@H](O)[C@@H]1N[C@H]1C=C(CO)[C@@H](O)[C@H](O)[C@H]1O (stereo not given in full) [ACARBOSE]	517000	11.1				378000				
Cc1nnc(SC(=O)c2ccc(-c3c(F)cccc3F)o2)s1	863	90.8	415	96.1						
O=C(O)[C@@H](O)[C@H]1OC(=O)[C@H](O)[C@H]1O [D-SACCHARIC ACID 1,4-LACTONE]			67300	11.6						30900
O=C(Sc1nncs1)c1ccc(-c2cccc([N+](=O)[O-])c2)o1	1570	79.6	212	74.6						
COc1ccc(-c2ccc(C(=O)Sc3nnc(C)s3)o2)cc1		33.1	303	87.5						
O=C(Sc1nncs1)c1ccc(-c2ccc(F)cc2)o1	652	76.5	526	94.4						
Cc1nnc(SC(=O)c2ccc(-c3ccc(Cl)cc3)o2)s1		48.8	695	77.8						
Cc1nnc(SC(=O)c2ccc(-c3ccc(Br)cc3)o2)s1	11000	50.8	755	82.7						
Cc1nnc(SC(=O)c2ccc(-c3cccc([N+](=O)[O-])c3)o2)s1		20.1	1200	92.5						
Cc1nnc(SC(=O)c2ccc(-c3ccccc3)o2)s1	823	73	923	95.9						
Cc1nnc(SC(=O)c2ccc(-c3ccc([N+](=O)[O-])cc3)o2)s1	2500	62.9	247	92.9						
O=C(Sc1nncs1)c1ccc(-c2ccccc2F)o1	1670	82.5	1140	87.8						
O=C(Sc1nncs1)c1ccc(-c2cccc(F)c2)o1	646	82.6	425	95.9						
O=C(Sc1nncs1)c1ccc(-c2ccccc2)o1	613	79.5	1130	105						
O=C(Sc1nncs1)c1ccc(-c2ccc([N+](=O)[O-])cc2)o1	1810	75.1								
Cc1nnc(SC(=O)c2ccc(-c3ccc(F)cc3)o2)s1	1850	58.7	796	78.8						
